Article PMC10064330, “Reversible Dual-Covalent Molecular Locking of the 14-3-3/ERRγ Protein–Protein Interaction as a Molecular Glue Drug Discovery Approach” (Journal of the American Chemical Society, 2023)

Molecular target: T1, 14-3-3γ/ERRγ complex (Homo sapiens, UniProt P61981+P62508)
T1 construct: made in house; host or cells: E. coli NiCo21 (DE3)
Assay: Time-dependent intact MS in competitive mixture of nine client phosphopeptides
Type: biochemical
Text: 14-3-3 proteins interact with many phosphorylated proteins, with differing affinities and cellular concentrations.[44],[49],[50] On the cellular level, there is a large reservoir of 14-3-3, typically in vast excess to its binding partners. Notwithstanding, we were interested in developing a testable model for the effect of the molecular locking on a PPI network. To investigate the intricacies of selective stabilization of the 14-3-3/ERRγ interaction in a complex matrix, we performed time-dependent intact MS experiments in a competitive environment of excess of 14-3-3 client phosphopeptides. A mixture of 14-3-3 (1 eq.), molecular lock 5 (10 eq.), ΕRRγ (2 eq.), and eight additional client phosphopeptides (8 × 2 eq.) was incubated, and incremental samples were taken, quenched with sodium cyanoborohydride, and measured (Figure 5). […] The peptide panel contained four higher-affinity and three lower-affinity 14-3-3 binding clients, relative to ERRγ, (Figure 5b) and contained +1 Cys-containing peptides RND3 and PKR.
Figure S23a. QTOF-MS analysis of 14-3-3/peptide mix/5. […] Calculated mass 14-3-3γ apo:
31542.8 Da. Calculated mass covalently crosslinked 14-3-3γ/ERRγ/5 complex: 33019.5 Da. […]
Different Scanning Fluorimetry (DSF) assays were performed using 40 µL samples containing 5 µM 14-3-3γ, 50 µM ERRγ pS179 9-mer peptide, 200 µM compound (or 1% DMSO) and 5x ProteoOrange (Lumiprobe, 5000x stock in DMSO) in 10 mM Hepes, 150 mM NaCl, 50 µM TCEP (pH 8.0). […] Fluorescence intensity was determined using excitation 470/40 nm and emission 570/20 nm filters. Based on these melting curves, the negative derivative melting curve is obtained from which the melting temperature Tm was determined. ΔTm values represent the differences in melting temperature relative to the DMSO control. All described melting temperatures are based on three independent experiments from which the average and standard deviations were determined using excel. […]

T1 sequence (P61981 whole entry, other chains not shown): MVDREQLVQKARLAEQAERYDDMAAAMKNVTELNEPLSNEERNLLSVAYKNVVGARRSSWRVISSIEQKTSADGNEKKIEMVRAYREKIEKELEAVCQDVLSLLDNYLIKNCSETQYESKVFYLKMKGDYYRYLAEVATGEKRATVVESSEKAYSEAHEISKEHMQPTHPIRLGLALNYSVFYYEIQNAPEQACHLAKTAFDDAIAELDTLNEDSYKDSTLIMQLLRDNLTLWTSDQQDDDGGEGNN

CN(C)CCSSCCN(C)C(=O)c1ccc(C=O)c(F)c1 [compound 5]
maximum crosslinking efficiency (14-3-3γ/ERRγ/5 complex formation) (14-3-3γ 5 μM, ERRγ 10 μM, 5 50 μM, eight additional phosphopeptides 10 μM each): 35% | increase in total number of 14-3-3/ERRγ complexes in solution (intact MS 35% vs modeled 2.4% ERRγ bound): 15 fold | reduction in crosslinking capacity, peptide mix vs ERRγ in isolation (peptide competitors relative to ERRγ 8:1): ~2 fold
